As a reminder, the IC50 is the concentration at which inhibition is half-maximal.

One test has as its system Stat3 (pY705). Nature of the test: Immunoblot assay of IL-6-mediated phosphorylation of Stat3 in HepG2 cells. Particulars: Homo sapiens; Table 4; HepG2, compound 60 min, IL-6 30 ng/ml 30 min; read-out: pStat3 IC50. Type of test: cell-based. The procedure:
Cells were then stimulated with IL-6 (30 ng/ml) for 30 min. Protein extracts of cells were separated by SDS-PAGE, blotted and developed serially with antibodies to pStat3, total Stat3 and β-actin. Blots were stripped between each antibody probing. The bands intensities of immunoblot were quantified by densitometry. The value of each pStat3 band's intensity was divided by each corresponding value of total Stat3 band intensity and the results normalized to the DMSO-treated control value and plotted as a function of the log compound concentration. The best-fit curves were generated based on 4 Parameter Logistic Model/Dose Response One Site/XLfit 4.2, IDBS. Each panel is representative of 3 or more experiments.
Immunoblot assay. The human hepatocellular carcinoma cell line (HepG2) was grown in 6-well plates under standard conditions. Cells were pretreated with compounds (0, 1, 3, 10, 30, 100 and 300 uM) for 1 hour then stimulated under optimal conditions with either interferon gamma (IFN-γ; 30 ng/ml for 30 min) to activate Stat1 or interleukin-6 (IL-6; 30 ng/ml for 30 min) to activate Stat3 (30-31). Cultures were then harvested and proteins extracted using high-salt buffer, as described (Shao et al., 2006). […]
EXP IIC. […] Band intensities are quantified by densitometry. […]

In another test the test system is Stat1 (pY701). The test can be described thus: Immunoblot assay of IFN-γ-mediated Stat1 phosphorylation in HepG2 cells. Type of test: cell-based, human. As to conditions: 300 μM, 1 hour at 37° C. As to the method: HepG2 cells were pretreated with DMSO alone or DMSO containing each of the compounds at a concentration of 300 μM for 60 min. Cells were then stimulated with IFN-γ (30 ng/ml) for 30 min. Protein extracts of cells were separated by SDS-PAGE and immunoblotted serially with antibodies to pStat1, total Stat1 and β-actin. Blots were stripped between each immunoblotting. The results shown are representative of 2 or more experiments.
Immunoblot assay. The human hepatocellular carcinoma cell line (HepG2) was grown in 6-well plates under standard conditions. Cells were pretreated with compounds (0, 1, 3, 10, 30, 100 and 300 uM) for 1 hour then stimulated under optimal conditions with either interferon gamma (IFN-γ; 30 ng/ml for 30 min) to activate Stat1 or interleukin-6 (IL-6; 30 ng/ml for 30 min) to activate Stat3 (30-31). Cultures were then harvested and proteins extracted using high-salt buffer, as described (Shao et al., 2006). Briefly, extracts were mixed with 2× sodium dodecyl sulfate (SDS) sample buffer (125 mmol/L Tris-HCL pH 6.8; 4% SDS; 20% glycerol; 10% 2-mercaptoethanol) at a 1:1 ratio and heated for 5 minutes at 100° C. Proteins (20 μg) were separated by 7.5% SDS-PAGE and transferred to polyvinylidene fluoride (PVDF) membrane (Millipore, Waltham, Mass.) and immunoblotted. Prestained molecular weight markers (Biorad, Hercules, Calif.) were included in each gel. Membranes were probed serially with antibody against Stat1 pY^701 or Stat3 pY^705 followed by antibody against Stat1 or Stat3 (Transduction labs, Lexington, Ky.) then antibody against β-actin (Abcam, Cambridge, Mass.). Membranes were stripped between antibody probing using Restore™ Western Blot Stripping Buffer (Thermo Fisher Scientific Inc., Waltham, Mass.) per the manufacturer's instructions. Horseradish peroxidase-conjugated goat-anti-mouse IgG was used as the secondary antibody (Invitrogen Carlsbad, Calif.) and the membranes were developed with enhanced chemiluminescence (ECL) detection system (Amersham Life Sciences Inc.; Arlington Heights, Ill.).
While Stat3 contributes to oncogenesis, in part, through inhibition of apoptosis, Stat1 is anti-oncogenic; it mediates the apoptotic effects of interferons and contributes to tumor surveillance (Kaplan et al., 1998; Ramana et al., 2000). Consequently, compounds that target Stat3 while sparing Stat1, leaving its anti-oncogenic functions unopposed, may result in a synergistic anti-tumor effect. […] Thus, five of the six exemplary compounds identified were selective and inhibited ligand-stimulated phosphorylation of Stat3 but not Stat1.
EXP IIC. Ligand-mediated pStat3 and pStat1 inhibition assays. […] Briefly, human hepatocellular carcinoma cells (HepG2) are grown in 6-well plates and pretreated with compounds (0, 0.1, 0.3, 1, 3, 10, 30, 100 μM) for 1 hour then stimulated under optimal conditions with either interleukin-6 (IL-6; 30 ng/ml for 30 min) to activate Stat3 or interferon gamma (IFN-γ; 30 ng/ml for 30 min) to activate Stat1. Cells are harvested and proteins extracted using high-salt buffer, mixed with 2× sodium dodecyl sulfate (SDS) sample buffer (125 mmol/L Tris-HCL pH 6.8; 4% SDS; 20% glycerol; 10%2-mercaptoethanol) at a 1:1 ratio then heated for 5 minutes at 100° C. Proteins (20 μg) are separated by 7.5% SDS-PAGE and transferred to polyvinylidene fluoride (PVDF) membrane (Millipore, Waltham, Mass.) and immunoblotted. Membranes are probed serially with antibody against Stat1 pY701 or Stat3 pY705 followed by antibody against Stat1 or Stat3 (Transduction labs, Lexington, Ky.) then antibody against β-actin (Abcam, Cambridge, Mass.). Membranes are stripped between antibody probings using Restore™ Western Blot Stripping Buffer (Thermo Fisher Scientific Inc., Waltham, Mass.) per the manufacturer's instructions. […]
(A western blot detects proteins with antibodies after separation by electrophoresis.)

Consider `O=C(O)c1ccc(C=CC(=O)c2ccc3c(c2)OCCO3)cc1` [Cpd3, 4-[3-(2,3-dihydro-1,4-benzodioxin-6-yl)-3-oxo-1-propen-1-yl]benzoic acid], for which, in the test on Stat3 (pY705), the IC50 is 91 µM. In the test with Stat1 (pY701), the “Stat1 phosphorylation after IFN-γ stimulation” value is given as “did not”.

Turning to `CCOc1cc(C=C2C(=O)c3ccccc3C2=O)cc(Cl)c1OCc1cccc(C(=O)O)c1` [Cpd3-2, 3-({2-chloro-4-[(1,3-dioxo-1,3-dihydro-2H-inden-2-ylidene)methyl]-6-ethoxyphenoxy}methyl)benzoic acid], the IC50 in the test on Stat3 (pY705) was determined as 144 µM. The “Stat1 phosphorylation after IFN-γ stimulation” value in the test on Stat1 (pY701) is “did not”.

(Values after patent publication US20150031714A1, “METHODS AND COMPOSITIONS FOR PREVENTION OF ALLERGIC REACTION” (Baylor College of Medicine, priority 2013, published 2015).)
